Source: patent publication US20100160369A1, “S1P1 Agonists and Methods of Making And Using” (EXELIXIS, INC., priority 2008, published 2010)

molecular target: S1P1 (Homo sapiens, UniProt P21453); assay: CNG cAMP Assay (Assay 1); assay type: cell-based; set-up: host or cells: HEK293 cells expressing the CNG channel; conditions: footnote 1: Relative EC50 was measured, read-out: Assay 1 Relative EC50
Experimental: Frozen HEK293 cells expressing the CNG channel and S1P1 (BD Biosciences, San Jose, Calif.) were thawed and plated into the wells of a black, clear bottom, 384-well CellBind plate (Corning, Corning, N.Y.) at 14,000 cells per well. HEK293 cells expressing the CNG channel and CB1 (BD Biosciences) were cultured and plated under the same conditions. The cells were incubated for 16 h at 37° C. in complete DMEM medium (Invitrogen Carlsbad, Calif.) containing 10% FBS (HyClone Logan, Utah), 250 μg/mL geneticin (Invitrogen), and 1 μg/mL puromycin (Sigma-Aldrich, St. Louis, Mo.). A membrane potential dye (BD Biosciences) was added and the plates were incubated for 2-2.5 h at room temperature.
Test compounds were tested at maximum concentrations of 10 μM. Compounds were diluted in DMSO (10 concentration points, 3-fold each) and added to the assay plate at final DMSO concentrations of 1.8%. For each compound, there were duplicate assay plates and each assay plate had duplicate wells per concentration point. Test compounds were added to the cells in a DPBS solution containing 25 μM Ro 20-1724 (Sigma-Aldrich), 500 nM of the A2b receptor agonist NECA (Sigma-Aldrich) and 10 nM (EC95) of S1P (Avanti Alabaster, Ala.) and incubated for 90 min. The assay plate was read before compound addition (T0) and after the 90 min incubation (T90) using an EnVision plate reader (PerkinElmer, Waltham, Mass.) at an excitation wavelength of 350 nm and an emission wavelength of 590 nm. The T90/T0 ratio was determined for each concentration of the test compounds. The percent agonist activity was determined as [(test compound−DMSO alone control)/(NECA alone control−DMSO alone control)*100]. The percent activities were plotted against compound concentration to determine EC50 using XLFit (IDBS, Alameda, Calif.). The control used for calculating rEC50 in the S1P1 CNG agonist assay was DMSO.
Assay 1 is the CNG cAMP Assay as described in Biological Example 1. Assay 2a and 2b are the Tango™ β-arrestin Recruitment Assay in HEK293 and U2OS cells, respectively, as described in Biological Example 2. Assay 3a is the hS1P1R GTPγS Binding Assay as described in Biological Example 3. Assay 3b is the GTP-Eu Binding Assay as described in Biological Example 3. EC50's were measured unless otherwise noted. […] In the table, “nt” means the Compound was not tested and “no” means the compound was tested but had no measurable activity under the assay conditions employed.

Chain of S1P1 (P21453 whole entry): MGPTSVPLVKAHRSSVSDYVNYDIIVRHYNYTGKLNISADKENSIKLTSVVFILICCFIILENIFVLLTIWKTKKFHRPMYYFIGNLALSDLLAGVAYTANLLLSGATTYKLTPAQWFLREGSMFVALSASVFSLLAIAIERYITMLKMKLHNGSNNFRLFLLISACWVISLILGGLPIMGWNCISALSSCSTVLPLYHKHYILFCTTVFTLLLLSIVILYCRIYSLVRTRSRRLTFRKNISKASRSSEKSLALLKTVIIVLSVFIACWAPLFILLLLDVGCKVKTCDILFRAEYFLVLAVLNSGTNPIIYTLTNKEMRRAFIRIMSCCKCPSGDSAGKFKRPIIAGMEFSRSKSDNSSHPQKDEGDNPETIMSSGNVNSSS

Compared with CS(=O)(=O)Nc1c(F)cc(-c2nc(-c3cn4cc(C(F)(F)F)cc(Cl)c4n3)no2)cc1Cl [Example 236, N-(2-chloro-4-{3-[8-chloro-6-(trifluoromethyl)imidazo[1,2-a]pyridin-2-yl]-1,2,4-oxadiazol-5-yl}-6-fluorophenyl)methane sulfonamide], CC(C)(CO)Oc1c(F)cc(-c2noc(-c3cn4cc(C(F)(F)F)cc(Cl)c4n3)n2)cc1Cl [Example 262, 2-[(2-chloro-4-{5-[8-chloro-6-(trifluoromethyl)imidazo[1,2-a]pyridin-2-yl]-1,2,4-oxadiazol-3-yl}-6-fluorophenyl)oxy]-2-methylpropan-1-ol] is lower in EC50: 5000 to 10000 nM for the first, 1000 to 5000 nM for the second.

same assay, conditions: read-out: Assay 1 EC50

First: CS(=O)(=O)Nc1ccc(-c2noc(-c3cn4cc(C(F)(F)F)cc(Cl)c4n3)n2)cc1 [Example 117, N-(4-{5-[8-chloro-6-(trifluoromethyl)imidazo[1,2-a]pyridin-2-yl]-1,2,4-oxadiazol-3-yl}phenyl)methanesulfonamide]
Second: CS(=O)(=O)Nc1c(F)cc(-c2noc(-c3cn4cc(C(F)(F)F)cc(Cl)c4n3)n2)cc1Cl [Example 268, N-(2-chloro-4-{5-[8-chloro-6-(trifluoromethyl)imidazo[1,2-a]pyridin-2-yl]-1,2,4-oxadiazol-3-yl}-6-fluorophenyl)methane sulfonamide]
The EC50 of the first is lower: ≤ 100 nM for the first, 500 to 1000 nM for the second. The first is the more potent here.

FC(F)(F)c1cc(Cl)c2nc(-c3nc(-c4ccc5[nH]ccc5c4)no3)cn2c1 [Example 151, 8-chloro-2-[3-(1H-indol-5-yl)-1,2,4-oxadiazol-5-yl]-6-(trifluoromethyl)imidazo[1,2-a]pyridine] and FC(F)(F)c1cc(Cl)c2nc(-c3nc(-c4cccc5[nH]ccc45)no3)cn2c1 [Example 162, 8-chloro-2-[3-(1H-indol-4-yl)-1,2,4-oxadiazol-5-yl]-6-(trifluoromethyl)imidazo[1,2-a]pyridine] cannot be ordered by EC50: 100 to 500 nM for the first, ≤ 100 nM for the second.

NCCOc1ccc(-c2nc(-c3cn4cc(C(F)(F)F)cc(Cl)c4n3)no2)c(Cl)c1 [Example 195, 2-[(3-chloro-4-{3-[8-chloro-6-(trifluoromethyl)imidazo[1,2-a]pyridin-2-yl]-1,2,4-oxadiazol-5-yl}phenyl)oxy]ethanamine] and CC(N)COc1ccc(-c2noc(-c3cn4cc(C(F)(F)F)cc(Cl)c4n3)n2)c(Cl)c1 (stereo not drawn) [Example 200, 1-[(3-chloro-4-{5-[8-chloro-6-(trifluoromethyl)imidazo[1,2-a]pyridin-2-yl]-1,2,4-oxadiazol-3-yl}phenyl)oxy]propan-2-amine] fall in the same range of EC50: 100 to 500 nM for the first, 100 to 500 nM for the second.

CC(CO)Oc1c(F)cc(-c2noc(-c3cn4cc(C(F)(F)F)cc(Cl)c4n3)n2)cc1Cl (stereo not drawn) [Example 261, 2-[(2-chloro-4-{5-[8-chloro-6-(trifluoromethyl)imidazo[1,2-a]pyridin-2-yl]-1,2,4-oxadiazol-3-yl}-6-fluorophenyl)oxy]propan-1-ol] and Cc1cc(-c2noc(-c3cn4cc(C(F)(F)F)cc(Cl)c4n3)n2)cc(C)c1O[C@H](C)CO [Example 91, (2R)-2-[(4-{5-[8-chloro-6-(trifluoromethyl)imidazo[1,2-a]pyridin-2-yl]-1,2,4-oxadiazol-3-yl}-2,6-dimethylphenyl)oxy]propan-1-ol] cannot be ordered by EC50: ≤ 100 nM for the first, ≤ 100 nM for the second.

CCOC(=O)C(C)Oc1cc(Cl)c(-c2noc(-c3cn4cc(C(F)(F)F)cc(Cl)c4n3)n2)cc1F (stereo not drawn) [Example 113, ethyl 2-[(5-chloro-4-{5-[8-chloro-6-(trifluoromethyl)imidazo[1,2-a]pyridin-2-yl]-1,2,4-oxadiazol-3-yl}-2-fluorophenyl)oxy]propanoate] and CC(Oc1cc(Cl)c(-c2noc(-c3cn4cc(C(F)(F)F)cc(Cl)c4n3)n2)cc1F)C(=O)O (stereo not drawn) [Example 83, 2-[(5-chloro-4-{5-[8-chloro-6-(trifluoromethyl)imidazo[1,2-a]pyridin-2-yl]-1,2,4-oxadiazol-3-yl}-2-fluorophenyl)oxy]propanoic acid] cannot be ordered by EC50: ≤ 100 nM for the first, 100 to 500 nM for the second.

NCC(O)COc1cc(Cl)c(-c2nnc(-c3cn4cc(C(F)(F)F)cc(Cl)c4n3)s2)cc1F (stereo not drawn) [Example 249, 1-amino-3-[(5-chloro-4-{5-[8-chloro-6-(trifluoromethyl)imidazo[1,2-a]pyridin-2-yl]-1,3,4-thiadiazol-2-yl}-2-fluorophenyl)oxy]propan-2-ol] and CC(CO)Oc1cc(Cl)c(-c2nc(-c3cn4cc(C(F)(F)F)cc(Cl)c4n3)no2)cc1F (stereo not drawn) [Example 217, 2-[(5-chloro-4-{3-[8-chloro-6-(trifluoromethyl)imidazo[1,2-a]pyridin-2-yl]-1,2,4-oxadiazol-5-yl}-2-fluorophenyl)oxy]propan-1-ol] cannot be ordered by EC50: ≤ 100 nM for the first, ≤ 100 nM for the second.

Fc1ccc(-c2noc(-c3cn4cc(C(F)(F)F)cc(Cl)c4n3)n2)c(Br)c1 [Example 168, 2-[3-(2-bromo-4-fluorophenyl)-1,2,4-oxadiazol-5-yl]-8-chloro-6-(trifluoromethyl)imidazo[1,2-a]pyridine] and N#Cc1cc(C(F)(F)F)cn2cc(-c3nc(-c4ccc(F)cc4Cl)no3)nc12 [Example 291, 2-[3-(2-chloro-4-fluorophenyl)-1,2,4-oxadiazol-5-yl]-6-(trifluoromethyl)imidazo[1,2-a]pyridine-8-carbonitrile] cannot be ordered by EC50: ≤ 100 nM for the first, 100 to 500 nM for the second.

CS(=O)(=O)CCc1ccc(-c2noc(-c3cn4cc(C(F)(F)F)cc(Cl)c4n3)n2)c(Cl)c1 [Example 140, 8-chloro-2-(3-{2-chloro-4-[2-(methylsulfonyl)ethyl]phenyl}-1,2,4-oxadiazol-5-yl)-6-(trifluoromethyl)imidazo[1,2-a]pyridine] and Nc1ccc(-c2noc(-c3cn4cc(C(F)(F)F)cc(Cl)c4n3)n2)c(Cl)c1 [Example 90, 3-chloro-4-{5-[8-chloro-6-(trifluoromethyl)imidazo[1,2-a]pyridin-2-yl]-1,2,4-oxadiazol-3-yl}aniline] cannot be ordered by EC50: ≤ 100 nM for the first, ≤ 100 nM for the second.

CS(=O)(=O)Nc1cc(Cl)c(-c2nc(-c3cn4cc(C(F)(F)F)cc(Cl)c4n3)no2)cc1F [Example 234, N-(5-chloro-4-{3-[8-chloro-6-(trifluoromethyl)imidazo[1,2-a]pyridin-2-yl]-1,2,4-oxadiazol-5-yl}-2-fluorophenyl)methanesulfonamide] and Fc1cccc(Cl)c1-c1noc(-c2cn3cc(C(F)(F)F)cc(Cl)c3n2)n1 [Example 163, 8-chloro-2-[3-(2-chloro-6-fluorophenyl)-1,2,4-oxadiazol-5-yl]-6-(trifluoromethyl)imidazo[1,2-a]pyridine] cannot be ordered by EC50: ≤ 100 nM for the first, 100 to 500 nM for the second.

OC[C@@H]1C[C@H](Oc2ccc(-c3noc(-c4cn5cc(C(F)(F)F)cc(Cl)c5n4)n3)c(Cl)c2)CN1 [Example 87, {(2S,4S)-4-[(3-chloro-4-{5-[8-chloro-6-(trifluoromethyl)imidazo[1,2-a]pyridin-2-yl]-1,2,4-oxadiazol-3-yl}phenyl)oxy]pyrrolidin-2-yl}methanol] and O=C(O)CN1CCC(Oc2ccc(-c3noc(-c4cn5cc(C(F)(F)F)cc(Cl)c5n4)n3)c(Cl)c2)C1 (stereo not drawn) [Example 112] cannot be ordered by EC50: ≤ 100 nM for the first, ≤ 100 nM for the second.

First: FC(F)(F)c1cc(Cl)c2nc(-c3nnc(-c4ccccc4Cl)o3)cn2c1 [Entry 73]
Second: FC(F)(F)c1ccc(-c2noc(-c3cn4cc(C(F)(F)F)cc(Cl)c4n3)n2)c(Cl)c1 [Example 183, 8-chloro-2-{3-[2-chloro-4-(trifluoromethyl)phenyl]-1,2,4-oxadiazol-5-yl}-6-(trifluoromethyl)imidazo[1,2-a]pyridine]
The EC50 of the first is lower: ≤ 100 nM for the first, 500 to 1000 nM for the second. The first is the more potent here.

Compared with Cc1cc(-c2noc(-c3cn4cc(C(F)(F)F)cc(Cl)c4n3)n2)ccc1CCC(=O)O [Entry 23], Cc1c(Cl)cn2cc(-c3nc(-c4cc(F)c(CCC(=O)O)cc4Cl)no3)nc2c1Cl [Entry 35] is higher in EC50: ≤ 100 nM for the first, 500 to 1000 nM for the second.

In the case of N#Cc1cc(Cl)c2nc(-c3nc(-c4cc(F)c(CCC(=O)O)cc4Cl)no3)cn2c1 [Entry 48], the EC50 is reported as ≤ 100 nM.

same assay, conditions: relative EC50 was measured (footnote 1), read-out: Assay 1 Relative EC50

Compared with C=CCOc1c(C)cc(-c2noc(-c3cn4cc(C(F)(F)F)cc(Cl)c4n3)n2)cc1C [Entry 37], CCN(CC)CCS(=O)(=O)Nc1ccc(-c2noc(-c3cn4cc(C(F)(F)F)cc(Cl)c4n3)n2)c(Cl)c1 [Example 108, N-(3-chloro-4-{5-[8-chloro-6-(trifluoromethyl)imidazo[1,2-a]pyridin-2-yl]-1,2,4-oxadiazol-3-yl}phenyl)-2-(diethylamino)ethanesulfonamide] is lower in EC50: 5000 to 10000 nM for the first, 1000 to 5000 nM for the second. The second is the more potent here.

For O=C(O)CCc1ccc(Nc2nnc(-c3cn4cc(C(F)(F)F)cc(Cl)c4n3)o2)c(Cl)c1 [Entry 74], the EC50 was 5000 to 10000 nM.
